Assay results from PubChem BioAssay AID248 (DTP/NCI, 2004).
Values joined by “and” are separate entries in the source; they are usually repeats but may differ in a detail not shown here. Equal entries are not always repeated. Inconclusive results and toxic doses are left out. Cut-off read from the data, not from the text of the source: active = T/C of 150% or more; inactive = T/C below 125%.

System: L1210 leukemia ip in BDF1 mice, survival T/C
Assay: NCI In Vivo Anticancer Drug Screen. Data for tumor model L1210 Leukemia (intraperitoneal) in B6D2F1 (BDF1) mice
Conditions: endpoint: mean survival time, higher = longer survival
Outline: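 Mice bearing the transplanted tumor received compound or vehicle. Survival of the treated group was divided by that of the vehicle-treated control group to give the ratio.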

[1] = dose: 100.0 mg/kg/injection, schedule: Q04DX003 (ip), vehicle: saline
[2] = dose: 100.0 mg/kg/injection, schedule: Q04DX003 (ip), vehicle: Klucel (hydroxypropylcellulose) (HPC)
[3] = dose: 200.0 mg/kg/injection, schedule: Q04DX003 (ip), vehicle: Klucel (hydroxypropylcellulose) (HPC)
[4] = dose: 400.0 mg/kg/injection, schedule: Q04DX003 (ip), vehicle: Klucel (hydroxypropylcellulose) (HPC)
[5] = dose: 100.0 mg/kg/injection, schedule: Q04DX002 (ip), vehicle: saline with Tween-80
[6] = dose: 200.0 mg/kg/injection, schedule: Q04DX002 (ip), vehicle: saline with Tween-80
[7] = dose: 400.0 mg/kg/injection, schedule: Q04DX002 (ip), vehicle: saline with Tween-80
[8] = dose: 100.0 mg/kg/injection, schedule: Q04DX002 (ip), vehicle: Klucel (hydroxypropylcellulose) (HPC)
[9] = dose: 200.0 mg/kg/injection, schedule: Q04DX002 (ip), vehicle: Klucel (hydroxypropylcellulose) (HPC)
[10] = dose: 400.0 mg/kg/injection, schedule: Q04DX002 (ip), vehicle: Klucel (hydroxypropylcellulose) (HPC)
[11] = dose: 100.0 mg/kg/injection, schedule: Q01DX001 (ip), vehicle: saline
[12] = dose: 200.0 mg/kg/injection, schedule: Q01DX001 (ip), vehicle: saline
[13] = dose: 100.0 mg/kg/injection, schedule: Q04DX003 (ip), vehicle: saline with Tween-80
[14] = dose: 200.0 mg/kg/injection, schedule: Q04DX003 (ip), vehicle: saline with Tween-80
[15] = dose: 200.0 mg/kg/injection, schedule: Q01DX001 (ip), vehicle: Klucel (hydroxypropylcellulose) (HPC)
[16] = dose: 400.0 mg/kg/injection, schedule: Q01DX001 (ip), vehicle: Klucel (hydroxypropylcellulose) (HPC)
[17] = dose: 400.0 mg/kg/injection, schedule: Q04DX003 (ip), vehicle: saline with Tween-80
[18] = dose: 100.0 mg/kg/injection, schedule: Q01DX009 (ip), vehicle: saline with Tween-80
[19] = dose: 200.0 mg/kg/injection, schedule: Q01DX009 (ip), vehicle: saline with Tween-80

Measured: T/C

ClCCN1CCN(CCCN2c3ccccc3CCc3ccccc32)CC1
inactive: dose: 12.5 mg/kg/injection, schedule: Q04DX003 (ip), vehicle: saline 106 % of control | dose: 25.0 mg/kg/injection, schedule: Q04DX003 (ip), vehicle: saline 94 % of control | dose: 50.0 mg/kg/injection, schedule: Q04DX003 (ip), vehicle: saline 114 % of control | [1] 102 % of control and 110 % of control | dose: 150.0 mg/kg/injection, schedule: Q04DX003 (ip), vehicle: saline 93 % of control | dose: 225.0 mg/kg/injection, schedule: Q04DX003 (ip), vehicle: saline 103 % of control | dose: 335.0 mg/kg/injection, schedule: Q04DX003 (ip), vehicle: saline 93 % of control and 109 % of control | dose: 400.0 mg/kg/injection, schedule: Q04DX003 (ip), vehicle: saline 101 % of control

Cc1ccc(NC(=O)Nc2ccc(Nc3ccccc3)cc2)c([N+](=O)[O-])c1
inactive: [2] 94 % of control | [3] 90 % of control | [4] 90 % of control

CCCCN(C)N=Nc1cn(C2OC(CO)C(O)C2O)c(=O)n(C)c1=O (stereo not drawn)
inactive: dose: 100.0 mg/kg/injection, schedule: Q01DX005 (ip), vehicle: saline 119 % of control

O=C(CCl)N1C(=O)CC(c2ccccc2)C1=O (stereo not drawn)
inactive: [5] 101 % of control | [6] 97 % of control | [7] 95 % of control

CCN(CC)C(=S)Oc1c(C(C)(C)C)cc([N+](=O)[O-])c(C)c1[N+](=O)[O-]
inactive: [8] 90 % of control | [9] 100 % of control | [10] 97 % of control

S=C(c1ccccc1Cl)N1CCOCC1
inactive: [11] 104 % of control | [12] 102 % of control | dose: 400.0 mg/kg/injection, schedule: Q01DX001 (ip), vehicle: saline 98 % of control

CCCCCCCCN(CC)CC
inactive: dose: 50.0 mg/kg/injection, schedule: Q01DX001 (ip), vehicle: saline 88 % of control | [11] 90 % of control | [12] 90 % of control

CCCCCCCCSCC(=O)O
inactive: [13] 103 % of control | [14] 97 % of control

O=Nc1ccc(O)cc1Br
inactive: dose: 100.0 mg/kg/injection, schedule: Q01DX001 (ip), vehicle: Klucel (hydroxypropylcellulose) (HPC) 100 % of control | [15] 97 % of control | [16] 100 % of control and 92 % of control

Brc1ccc(/C(=N/Nc2ccccc2)Oc2ccccc2)cc1
inactive: [13] 94 % of control | [14] 94 % of control | [17] 102 % of control

CCOc1ccc(N=Cc2cccc([N+](=O)[O-])c2)cc1
inactive: dose: 100.0 mg/kg/injection, schedule: Q01DX001 (ip), vehicle: saline with Tween-80 103 % of control | [18] 107 % of control and 90 % of control | dose: 200.0 mg/kg/injection, schedule: Q01DX001 (ip), vehicle: saline with Tween-80 90 % of control | [19] 97 % of control and 90 % of control | dose: 400.0 mg/kg/injection, schedule: Q01DX001 (ip), vehicle: saline with Tween-80 99 % of control | dose: 400.0 mg/kg/injection, schedule: Q01DX009 (ip), vehicle: saline with Tween-80 100 % of control and 91 % of control

NC(N)=NN=C(c1ccc([N+](=O)[O-])s1)c1ccc([N+](=O)[O-])s1
inactive: dose: 15.0 mg/kg/injection, schedule: Q01DX Z (ip), vehicle: carboxymethylcellulose (CMC) 97 % of control | dose: 30.0 mg/kg/injection, schedule: Q01DX Z (ip), vehicle: carboxymethylcellulose (CMC) 95 % of control | dose: 60.0 mg/kg/injection, schedule: Q01DX Z (ip), vehicle: carboxymethylcellulose (CMC) 97 % of control and 105 % of control | dose: 120.0 mg/kg/injection, schedule: Q01DX Z (ip), vehicle: carboxymethylcellulose (CMC) 94 % of control and 95 % of control | dose: 240.0 mg/kg/injection, schedule: Q01DX Z (ip), vehicle: carboxymethylcellulose (CMC) 100 % of control | dose: 480.0 mg/kg/injection, schedule: Q01DX Z (ip), vehicle: carboxymethylcellulose (CMC) 90 % of control

COc1ccccc1C(=O)NC(=S)Nc1ccc(Cl)c(Cl)c1
inactive: dose: 100.0 mg/kg/injection, schedule: Q01DX009 (ip), vehicle: Klucel (hydroxypropylcellulose) (HPC) 96 % of control and 87 % of control | [8] 95 % of control and 88 % of control | [2] 94 % of control | [15] 86 % of control | dose: 200.0 mg/kg/injection, schedule: Q01DX009 (ip), vehicle: Klucel (hydroxypropylcellulose) (HPC) 96 % of control and 106 % of control | [9] 98 % of control and 91 % of control | [3] 92 % of control | [16] 107 % of control | dose: 400.0 mg/kg/injection, schedule: Q01DX009 (ip), vehicle: Klucel (hydroxypropylcellulose) (HPC) 102 % of control | [10] 98 % of control and 91 % of control | [4] 102 % of control

NC(=S)NNC(=O)/C=C/c1ccccc1
inactive: dose: 100.0 mg/kg/injection, schedule: Q04DX003 (ip), vehicle: saline sonified 105 % of control | dose: 200.0 mg/kg/injection, schedule: Q04DX003 (ip), vehicle: saline sonified 91 % of control | dose: 400.0 mg/kg/injection, schedule: Q04DX003 (ip), vehicle: saline sonified 91 % of control

CCOC(=O)C1(C(=O)OCC)CC(C)C(=O)N1c1ccccc1OC (stereo not drawn)
inactive: [8] 100 % of control | [9] 89 % of control | [10] 100 % of control

CCCNC(=O)Oc1ccccc1C(=O)NCO
inactive: dose: 100.0 mg/kg/injection, schedule: Q01DX009 (ip), vehicle: other 101 % of control | dose: 200.0 mg/kg/injection, schedule: Q01DX009 (ip), vehicle: other 96 % of control

C1COCOC1
inactive: dose: 50.0 mg/kg/injection, schedule: Q01DX009 (ip), vehicle: acetone 109 % of control | dose: 100.0 mg/kg/injection, schedule: Q01DX009 (ip), vehicle: acetone 106 % of control | dose: 200.0 mg/kg/injection, schedule: Q01DX009 (ip), vehicle: acetone 119 % of control

C=CCOc1ccc(Cl)cc1
inactive: [13] 90 % of control | [14] 94 % of control

CC(=O)c1cccc(NC(=O)Nc2ccc(S(N)(=O)=O)cc2)c1
inactive: [18] 105 % of control | [19] 97 % of control

COC(=O)C1=C(C(=O)OC)C2OC1C(COC(C)=O)=C2COC(C)=O
inactive: [1] 93 % of control

O=[N+]([O-])c1ccc(/C=N/c2oc(-c3ccc([N+](=O)[O-])cc3)nc2SCc2ccccc2)cc1
inactive: dose: 50.0 mg/kg/injection, schedule: Q04DX002 (ip), vehicle: Klucel (hydroxypropylcellulose) (HPC) 100 % of control | [8] 100 % of control | [9] 116 % of control

C#CC1(OC(=O)Nc2cc3ccccc3o2)CCCCC1
inactive: [13] 90 % of control | [14] 95 % of control | [17] 92 % of control

OCn1nnc2ccccc21
inactive: [5] 103 % of control | [6] 90 % of control | [7] 106 % of control

CSc1ccc(B2Oc3cc(Cl)c(Cl)cc3O2)cc1
inactive: dose: 100.0 mg/kg/injection, schedule: Q04DX003 (ip), vehicle: alcohol 124 % of control | dose: 200.0 mg/kg/injection, schedule: Q04DX003 (ip), vehicle: alcohol 95 % of control | dose: 400.0 mg/kg/injection, schedule: Q04DX003 (ip), vehicle: alcohol 100 % of control
